Results: ChEMBL document CHEMBL5291721, “A preclinical secondary pharmacology resource illuminates target-adverse drug reaction associations of marketed drugs” (Nat Commun, 2023)

Assays:
[1] = target: Gamma-aminobutyric acid receptor subunit alpha-1 (Rattus norvegicus, UniProt P62813)
[2] = target: Synaptic vesicular amine transporter (Rattus norvegicus, UniProt Q01827); type: functional
[3] = target: T1, Muscarinic acetylcholine receptor M1 (Homo sapiens, UniProt P11229); type: functional, cell-based
T1 sequence (P11229 whole entry): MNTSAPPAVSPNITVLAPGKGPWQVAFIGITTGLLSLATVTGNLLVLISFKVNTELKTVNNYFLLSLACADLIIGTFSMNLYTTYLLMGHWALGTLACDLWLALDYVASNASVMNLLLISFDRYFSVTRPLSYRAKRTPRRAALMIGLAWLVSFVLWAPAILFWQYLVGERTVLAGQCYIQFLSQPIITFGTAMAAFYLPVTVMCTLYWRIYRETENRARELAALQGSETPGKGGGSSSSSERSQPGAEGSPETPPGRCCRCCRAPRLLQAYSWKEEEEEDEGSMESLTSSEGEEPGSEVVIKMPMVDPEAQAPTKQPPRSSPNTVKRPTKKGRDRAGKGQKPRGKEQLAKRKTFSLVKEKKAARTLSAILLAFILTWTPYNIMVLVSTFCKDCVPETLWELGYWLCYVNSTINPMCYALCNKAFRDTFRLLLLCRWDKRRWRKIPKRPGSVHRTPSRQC

[4] = target: T2, Corticotropin-releasing factor receptor 1 (Homo sapiens, UniProt P34998)
T2 sequence (P34998 whole entry): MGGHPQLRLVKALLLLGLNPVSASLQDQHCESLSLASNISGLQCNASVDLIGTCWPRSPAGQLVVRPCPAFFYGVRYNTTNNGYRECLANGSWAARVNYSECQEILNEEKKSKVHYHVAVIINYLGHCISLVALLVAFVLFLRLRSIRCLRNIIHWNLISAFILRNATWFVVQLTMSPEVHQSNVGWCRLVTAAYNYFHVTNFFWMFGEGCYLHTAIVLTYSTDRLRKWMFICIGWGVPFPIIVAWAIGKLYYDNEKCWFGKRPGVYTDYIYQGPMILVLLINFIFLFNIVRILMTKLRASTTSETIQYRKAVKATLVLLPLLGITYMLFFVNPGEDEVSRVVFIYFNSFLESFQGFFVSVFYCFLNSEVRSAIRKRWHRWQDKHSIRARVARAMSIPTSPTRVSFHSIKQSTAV

[5] = target: Beta-3 adrenergic receptor (Homo sapiens, UniProt P13945)
Chain of Beta-3 adrenergic receptor (P13945 whole entry): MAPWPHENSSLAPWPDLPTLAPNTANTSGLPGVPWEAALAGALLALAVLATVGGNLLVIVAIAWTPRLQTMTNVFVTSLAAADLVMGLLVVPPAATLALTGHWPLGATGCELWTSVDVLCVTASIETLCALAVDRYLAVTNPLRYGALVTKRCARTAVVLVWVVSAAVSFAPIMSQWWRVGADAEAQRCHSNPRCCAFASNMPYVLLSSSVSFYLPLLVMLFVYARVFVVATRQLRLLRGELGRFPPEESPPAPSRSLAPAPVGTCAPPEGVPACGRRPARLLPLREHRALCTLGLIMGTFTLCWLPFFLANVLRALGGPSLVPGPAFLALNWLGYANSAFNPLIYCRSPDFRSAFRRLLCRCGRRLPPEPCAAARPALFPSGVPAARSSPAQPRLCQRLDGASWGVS

[6] = target: Estrogen receptor beta (Homo sapiens, UniProt Q92731)
Chain of Estrogen receptor beta (Q92731 whole entry): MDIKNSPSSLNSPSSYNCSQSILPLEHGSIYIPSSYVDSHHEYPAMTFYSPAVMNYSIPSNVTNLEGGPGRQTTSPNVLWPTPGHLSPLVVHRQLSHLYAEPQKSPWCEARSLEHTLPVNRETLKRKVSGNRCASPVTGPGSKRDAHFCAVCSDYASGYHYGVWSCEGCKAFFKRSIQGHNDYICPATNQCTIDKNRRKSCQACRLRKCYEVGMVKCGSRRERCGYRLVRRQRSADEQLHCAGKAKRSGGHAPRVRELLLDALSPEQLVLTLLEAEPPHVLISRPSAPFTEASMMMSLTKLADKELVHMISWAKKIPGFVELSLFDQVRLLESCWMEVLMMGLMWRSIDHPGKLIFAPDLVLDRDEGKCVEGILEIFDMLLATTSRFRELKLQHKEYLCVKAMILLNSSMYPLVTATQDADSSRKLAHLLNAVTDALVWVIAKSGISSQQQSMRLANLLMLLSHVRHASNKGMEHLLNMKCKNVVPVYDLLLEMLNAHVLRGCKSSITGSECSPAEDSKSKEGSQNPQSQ

[7] = target: D(1A) dopamine receptor (Homo sapiens, UniProt P21728)
Chain of D(1A) dopamine receptor (P21728 whole entry): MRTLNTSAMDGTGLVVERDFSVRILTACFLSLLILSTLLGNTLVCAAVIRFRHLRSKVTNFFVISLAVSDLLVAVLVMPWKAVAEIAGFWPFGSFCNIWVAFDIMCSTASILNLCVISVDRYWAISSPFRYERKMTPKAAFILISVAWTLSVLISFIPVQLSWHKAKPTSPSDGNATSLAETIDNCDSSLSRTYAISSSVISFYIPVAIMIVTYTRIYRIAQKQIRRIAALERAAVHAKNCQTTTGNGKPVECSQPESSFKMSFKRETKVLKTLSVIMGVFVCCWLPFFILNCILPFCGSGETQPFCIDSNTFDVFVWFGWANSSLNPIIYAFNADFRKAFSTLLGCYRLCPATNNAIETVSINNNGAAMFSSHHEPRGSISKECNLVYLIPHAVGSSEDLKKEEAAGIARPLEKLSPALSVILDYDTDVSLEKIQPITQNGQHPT

[8] = target: 5-hydroxytryptamine receptor 2B (Homo sapiens, UniProt P41595)
Chain of 5-hydroxytryptamine receptor 2B (P41595 whole entry): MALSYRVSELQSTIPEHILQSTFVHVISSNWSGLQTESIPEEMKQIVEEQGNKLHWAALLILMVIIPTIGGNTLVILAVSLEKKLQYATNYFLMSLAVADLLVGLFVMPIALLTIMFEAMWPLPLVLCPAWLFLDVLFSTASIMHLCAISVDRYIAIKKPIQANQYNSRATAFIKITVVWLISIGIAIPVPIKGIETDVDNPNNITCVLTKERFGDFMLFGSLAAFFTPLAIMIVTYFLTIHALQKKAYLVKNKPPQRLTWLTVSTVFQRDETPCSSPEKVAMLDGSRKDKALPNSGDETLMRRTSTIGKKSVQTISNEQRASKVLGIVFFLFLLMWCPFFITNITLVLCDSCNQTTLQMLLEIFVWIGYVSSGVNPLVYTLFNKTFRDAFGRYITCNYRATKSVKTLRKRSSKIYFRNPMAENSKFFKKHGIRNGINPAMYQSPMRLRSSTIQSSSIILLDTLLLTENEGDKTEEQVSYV

[9] = target: Neurotensin receptor type 1 (Homo sapiens, UniProt P30989)
Chain of Neurotensin receptor type 1 (P30989 whole entry): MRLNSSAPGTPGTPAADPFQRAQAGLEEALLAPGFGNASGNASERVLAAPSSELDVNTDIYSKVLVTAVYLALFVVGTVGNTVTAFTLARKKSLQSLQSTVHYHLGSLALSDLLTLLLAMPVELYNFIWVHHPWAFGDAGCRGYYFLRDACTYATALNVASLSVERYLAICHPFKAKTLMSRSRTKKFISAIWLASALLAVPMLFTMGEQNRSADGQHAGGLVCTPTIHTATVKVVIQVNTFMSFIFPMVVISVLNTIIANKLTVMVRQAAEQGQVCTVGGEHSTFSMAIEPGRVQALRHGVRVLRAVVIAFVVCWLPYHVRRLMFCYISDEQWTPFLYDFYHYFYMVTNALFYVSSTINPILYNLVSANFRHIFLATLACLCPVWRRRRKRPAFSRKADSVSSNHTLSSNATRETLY

[10] = target: T3, Peroxisome proliferator-activated receptor gamma (Homo sapiens, UniProt P37231); type: functional
T3 sequence (P37231 whole entry): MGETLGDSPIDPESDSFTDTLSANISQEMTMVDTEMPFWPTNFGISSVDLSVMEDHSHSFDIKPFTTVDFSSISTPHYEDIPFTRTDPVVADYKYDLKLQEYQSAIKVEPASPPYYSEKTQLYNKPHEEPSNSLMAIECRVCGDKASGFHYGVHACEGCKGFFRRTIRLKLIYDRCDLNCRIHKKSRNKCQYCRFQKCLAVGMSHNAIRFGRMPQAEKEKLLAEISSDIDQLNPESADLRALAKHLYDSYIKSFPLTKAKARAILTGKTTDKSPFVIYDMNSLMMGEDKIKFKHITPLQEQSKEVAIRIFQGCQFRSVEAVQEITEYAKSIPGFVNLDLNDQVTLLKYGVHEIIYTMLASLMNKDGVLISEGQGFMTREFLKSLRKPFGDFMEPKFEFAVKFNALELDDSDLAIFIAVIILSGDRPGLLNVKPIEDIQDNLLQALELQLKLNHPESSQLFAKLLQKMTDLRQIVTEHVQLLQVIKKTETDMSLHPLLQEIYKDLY

[11] = target: 5-hydroxytryptamine receptor 7 (Homo sapiens, UniProt P34969)
Chain of 5-hydroxytryptamine receptor 7 (P34969 whole entry): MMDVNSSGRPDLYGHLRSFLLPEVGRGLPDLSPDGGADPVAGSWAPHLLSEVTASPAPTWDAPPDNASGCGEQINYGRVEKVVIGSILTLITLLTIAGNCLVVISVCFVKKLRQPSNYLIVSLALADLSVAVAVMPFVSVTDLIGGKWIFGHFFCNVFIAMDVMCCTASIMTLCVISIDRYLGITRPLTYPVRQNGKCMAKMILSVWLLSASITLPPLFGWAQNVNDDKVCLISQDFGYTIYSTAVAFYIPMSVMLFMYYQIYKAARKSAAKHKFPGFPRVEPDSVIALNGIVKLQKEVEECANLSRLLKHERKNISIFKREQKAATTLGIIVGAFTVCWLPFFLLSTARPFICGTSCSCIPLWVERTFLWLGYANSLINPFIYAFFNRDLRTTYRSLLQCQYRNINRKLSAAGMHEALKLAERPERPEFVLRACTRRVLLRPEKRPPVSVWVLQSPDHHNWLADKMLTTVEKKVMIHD

[12] = target: 5-hydroxytryptamine receptor 6 (Homo sapiens, UniProt P50406)
Chain of 5-hydroxytryptamine receptor 6 (P50406 whole entry): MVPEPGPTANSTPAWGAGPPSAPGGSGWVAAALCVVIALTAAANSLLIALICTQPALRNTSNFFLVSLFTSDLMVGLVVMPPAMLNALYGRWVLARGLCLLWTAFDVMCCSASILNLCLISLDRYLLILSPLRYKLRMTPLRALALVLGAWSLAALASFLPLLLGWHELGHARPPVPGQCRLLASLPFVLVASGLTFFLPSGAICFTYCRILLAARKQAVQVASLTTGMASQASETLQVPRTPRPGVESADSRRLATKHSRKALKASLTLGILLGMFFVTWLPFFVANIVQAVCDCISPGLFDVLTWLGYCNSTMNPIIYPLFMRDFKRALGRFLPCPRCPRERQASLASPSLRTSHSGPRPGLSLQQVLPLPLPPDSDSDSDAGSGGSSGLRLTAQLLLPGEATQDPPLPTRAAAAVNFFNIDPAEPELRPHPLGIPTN
Note: assay procedure not described here.

Chain of Gamma-aminobutyric acid receptor subunit alpha-1 (P62813 whole entry): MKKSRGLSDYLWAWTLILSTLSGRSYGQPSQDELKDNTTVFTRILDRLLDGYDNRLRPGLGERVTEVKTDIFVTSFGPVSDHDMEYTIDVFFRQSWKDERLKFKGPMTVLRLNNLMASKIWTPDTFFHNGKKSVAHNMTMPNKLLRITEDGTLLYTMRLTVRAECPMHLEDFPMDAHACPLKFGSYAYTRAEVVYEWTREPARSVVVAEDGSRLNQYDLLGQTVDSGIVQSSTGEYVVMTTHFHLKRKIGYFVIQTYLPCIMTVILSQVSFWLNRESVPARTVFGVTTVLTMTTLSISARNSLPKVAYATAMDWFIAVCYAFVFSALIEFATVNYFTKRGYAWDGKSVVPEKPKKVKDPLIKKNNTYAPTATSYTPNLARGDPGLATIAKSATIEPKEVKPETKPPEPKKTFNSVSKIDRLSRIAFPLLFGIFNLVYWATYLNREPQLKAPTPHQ
Chain of Synaptic vesicular amine transporter (Q01827 whole entry): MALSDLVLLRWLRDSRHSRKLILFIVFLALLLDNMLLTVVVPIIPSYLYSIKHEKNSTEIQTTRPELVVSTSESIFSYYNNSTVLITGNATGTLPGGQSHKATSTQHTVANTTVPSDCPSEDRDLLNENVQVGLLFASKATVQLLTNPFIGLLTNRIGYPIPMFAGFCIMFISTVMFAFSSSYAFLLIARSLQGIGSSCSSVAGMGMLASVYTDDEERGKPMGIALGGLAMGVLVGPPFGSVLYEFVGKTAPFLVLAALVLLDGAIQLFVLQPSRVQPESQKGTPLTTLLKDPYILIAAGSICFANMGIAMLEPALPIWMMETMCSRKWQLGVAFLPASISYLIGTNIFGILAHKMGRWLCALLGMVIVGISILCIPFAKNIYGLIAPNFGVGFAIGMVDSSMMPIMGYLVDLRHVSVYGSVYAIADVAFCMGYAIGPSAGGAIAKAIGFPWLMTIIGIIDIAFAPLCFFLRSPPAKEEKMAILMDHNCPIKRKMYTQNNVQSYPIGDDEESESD

**Q.** Which results are given for `OC[C@@H](O)[C@@H](O)[C@H](O)[C@H](O)CO` [MANNITOL]?
**A.** AC50 [1]: > 30 µM; AC50 [2]: > 30 µM

**Q.** `CN1CCCC(CN2c3ccccc3Sc3ccccc32)C1` (configuration not stated) [MEPAZINE] was tested. Which AC50 [1] did it give?
**A.** > 30 µM

**Q.** With `CN1C(=O)CC(C)(c2ccccc2)C1=O` (configuration not stated) [METHSUXIMIDE] as the compound, how does the AC50 [2] read?
**A.** > 30 µM

**Q.** Which results are given for `CC(=O)Oc1c(C)cc(OCC(O)CNC(C)C)c(C)c1C` (configuration not stated) [METIPRANOLOL]?
**A.** AC50 [1]: > 30 µM; AC50 [3]: > 30 µM

**Q.** `CCN(CC)CCNC(=O)c1cc(Cl)c(N)cc1OC` [METOCLOPRAMIDE] was tested. Which AC50 [4] did it give?
**A.** > 30 µM

**Q.** And the AC50 [5]?
**A.** > 30 µM

**Q.** And the AC50 [6]?
**A.** > 30 µM

**Q.** What about the AC50 [7] of the same compound?
**A.** > 10 µM

**Q.** And the AC50 [8]?
**A.** 0.314 µM

**Q.** And the AC50 [9]?
**A.** > 30 µM

**Q.** Which AC50 [10] does the source give for `Cc1cccc(C)c1OCC(C)N` (configuration not stated) [MEXILETINE] here?
**A.** > 30 µM

**Q.** Which AC50 [10] does the source give for `NC(=O)c1ncn([C@@H]2O[C@H](CO)[C@@H](O)[C@H]2O)c1O` [MIZORIBINE] here?
**A.** > 30 µM

**Q.** Which AC50 [1] does the source give for `O=C1CC[C@@]2(O)[C@H]3Cc4ccc(O)c5c4[C@@]2(CCN3CC2CC2)[C@H]1O5` [NALTREXONE] here?
**A.** > 30 µM

**Q.** What does the source list for `CCc1nn(CCCN2CCN(c3cccc(Cl)c3)CC2)c(=O)n1CCOc1ccccc1` [NEFAZODONE]?
**A.** AC50 [4]: > 30 µM; AC50 [5]: 9.5 µM; AC50 [6]: > 30 µM; AC50 [11]: 0.237 µM; AC50 [8]: 0.084 µM; AC50 [12]: 0.808 µM; AC50 [9]: > 30 µM

**Q.** With `OCCN1CCN(CCCN2c3ccccc3C=Cc3ccccc32)CC1` [OPIPRAMOL] as the compound, how does the AC50 [1] read?
**A.** > 30 µM

**Q.** And the AC50 [10]?
**A.** > 30 µM

**Q.** And the AC50 [7]?
**A.** 2.24 µM

**Q.** What about the AC50 [3] of the same compound?
**A.** 25.7 µM

**Q.** Which AC50 [3] does the source give for `CC(N/C(=N\C#N)Nc1ccncc1)C(C)(C)C` (configuration not stated) [PINACIDIL ANHYDROUS] here?
**A.** > 30 µM

**Q.** What does the source list for `CCc1ccc(CCOc2ccc(CC3SC(=O)NC3=O)cc2)nc1` (configuration not stated) [PIOGLITAZONE]?
**A.** AC50 [4]: > 30 µM; AC50 [1]: > 30 µM; AC50 [5]: > 30 µM; AC50 [6]: > 30 µM; AC50 [7]: > 10 µM; AC50 [11]: > 10 µM; AC50 [8]: > 10 µM; AC50 [12]: > 10 µM; AC50 [9]: > 30 µM

**Q.** How did the AC50 [4] turn out when `CC(C(=O)O)c1ccc(N2CC=CC2)c(Cl)c1` (configuration not stated) [PIRPROFEN] was run?
**A.** > 30 µM

**Q.** And the AC50 [5]?
**A.** > 30 µM

**Q.** And the AC50 [6]?
**A.** > 30 µM

**Q.** What about the AC50 [7] of the same compound?
**A.** > 10 µM

**Q.** And the AC50 [8]?
**A.** > 10 µM

**Q.** And the AC50 [9]?
**A.** > 30 µM

**Q.** And the AC50 [3]?
**A.** 28.7 µM

**Q.** Which AC50 [2] does the source give for `CC(O)CO` (configuration not stated) [PROPYLENE GLYCOL] here?
**A.** > 30 µM

**Q.** `NC(=O)c1cnccn1` [PYRAZINAMIDE] was tested. Which AC50 [4] did it give?
**A.** > 30 µM

**Q.** What about the AC50 [5] of the same compound?
**A.** > 30 µM

**Q.** What about the AC50 [6] of the same compound?
**A.** > 30 µM

**Q.** And the AC50 [7]?
**A.** > 10 µM

**Q.** And the AC50 [11]?
**A.** > 10 µM

**Q.** What about the AC50 [8] of the same compound?
**A.** > 10 µM

**Q.** And the AC50 [12]?
**A.** > 10 µM

**Q.** And the AC50 [9]?
**A.** > 30 µM

**Q.** `CN(C)C(=O)Oc1ccc[n+](C)c1` [PYRIDOSTIGMINE] was tested. Which AC50 [3] did it give?
**A.** > 30 µM

**Q.** For `Cc1cc2c(cc1CC(=O)c1sccc1S(=O)(=O)Nc1onc(C)c1Cl)OCO2` [SITAXENTAN], which AC50 [1] is on record?
**A.** > 30 µM

**Q.** How did the AC50 [1] turn out when `CS(=O)(=O)c1ccc([C@@H](O)[C@@H](CO)NC(=O)C(Cl)Cl)cc1` [THIAMPHENICOL] was run?
**A.** > 30 µM

**Q.** And the AC50 [2]?
**A.** > 30 µM

**Q.** How did the AC50 [1] turn out when `Cc1ccc(O)c2ncccc12` [TILIQUINOL] was run?
**A.** > 30 µM

**Q.** And the AC50 [3]?
**A.** > 30 µM

**Q.** Which results are given for `O=C(CCCCCCC(=O)Nc1ccccc1)NO` [VORINOSTAT]?
**A.** AC50 [7]: > 10 µM; AC50 [11]: > 10 µM; AC50 [8]: > 10 µM; AC50 [12]: > 10 µM
